Columns and labels:
[1] = system: NCI-H358; experiment: Growth inhibition of human H358 cells expressing KRAS […] mutant measured after 3 days by Cell-titer Glo assay; format: functional; conditions: NCI-H358, 72 h, time 3 day
[2] = biological target: RAF proto-oncogene serine/threonine-protein kinase (Homo sapiens, UniProt P04049); experiment: Inhibition of human recombinant cRAF measured after 1 hr by TR-FRET assay
RAF proto-oncogene serine/threonine-protein kinase, sequence (P04049 whole entry): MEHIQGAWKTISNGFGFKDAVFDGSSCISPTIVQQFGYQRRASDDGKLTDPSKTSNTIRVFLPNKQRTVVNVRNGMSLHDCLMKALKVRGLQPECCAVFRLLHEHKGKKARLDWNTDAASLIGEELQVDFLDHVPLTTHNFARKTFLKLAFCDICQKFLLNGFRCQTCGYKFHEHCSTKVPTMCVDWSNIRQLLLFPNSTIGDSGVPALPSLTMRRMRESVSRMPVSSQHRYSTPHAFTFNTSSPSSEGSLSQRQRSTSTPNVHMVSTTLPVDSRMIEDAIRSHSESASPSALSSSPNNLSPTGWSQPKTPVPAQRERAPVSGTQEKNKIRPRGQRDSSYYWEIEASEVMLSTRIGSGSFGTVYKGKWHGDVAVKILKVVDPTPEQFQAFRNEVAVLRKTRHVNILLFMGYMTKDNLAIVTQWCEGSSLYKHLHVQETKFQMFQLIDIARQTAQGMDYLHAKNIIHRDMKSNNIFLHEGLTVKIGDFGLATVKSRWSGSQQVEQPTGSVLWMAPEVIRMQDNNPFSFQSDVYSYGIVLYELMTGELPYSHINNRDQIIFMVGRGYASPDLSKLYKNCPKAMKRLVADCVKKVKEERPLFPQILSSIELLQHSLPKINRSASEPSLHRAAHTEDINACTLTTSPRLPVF

Compound | GI50 [1] | IC50 [2]
Cc1ccc(NC(=O)c2ccnc(C(F)(F)F)c2)cc1-c1ccc2c(c1)OC1(COC1)NC2=O | 10000 nM | 62 nM
Cc1ccc(NC(=O)c2ccnc(C(F)(F)F)c2)cc1-c1ccc2c(c1)C(=O)CC1(CCOCC1)O2 | 9700 nM | 37 nM
Cc1ccc(NC(=O)c2ccnc(C(F)(F)F)c2)cc1-c1ccc2c(c1)N(O)C1(CCOCC1)NC2=O | 8900 nM | 55 nM
Cc1ccc(NC(=O)c2ccnc(C(F)(F)F)c2)cc1-c1ccc2c(c1)NC1(CCOCC1)NS2(=O)=O | 19000 nM | 60 nM
Cc1ccc(NC(=O)c2ccnc(C(F)(F)F)c2)cc1-c1ccc2c(c1)OC1(CCNCC1)NC2=O | 15000 nM | 19 nM

The next lines start with the values.

GI50 [1] | IC50 [2] | Compound
7900 nM | 29 nM | Cc1ccc(NC(=O)c2ccnc(C(F)(F)F)c2)cc1-c1ccc2c(c1)SC1(CCOCC1)CC2=O
5600 nM | 7 nM | Cc1ccc(NC(=O)c2ccnc(C(F)(F)F)c2)cc1-c1ccc2c(c1)OC1(CCSCC1)NC2=O
4900 nM | 5 nM | Cc1ccc(NC(=O)c2ccnc(C(F)(F)F)c2)cc1-c1ccc2c(c1)OC1(CCCOC1)NC2=O (stereo not given)
7300 nM | 5 nM | Cc1ccc(NC(=O)c2ccnc(C(F)(F)F)c2)cc1-c1ccc2c(c1)OC1(CCS(=O)(=O)CC1)NC2=O
15000 nM | 4.8 nM | Cc1ccc(NC(=O)c2ccnc(C(F)(F)F)c2)cc1-c1ccc2c(c1)NC1(CCOCC1)NC2=O
